According to paper PMC12621043, “Un-LOK-ing a New Approach for Conformational Selective Targeting of STK10 (LOK)” (ACS Medicinal Chemistry Letters, 2025):

Assays:
SLK = SLK (Homo sapiens, UniProt Q9H2G2); experiment: DSF Tm panel; type: binding; design: purchased in-house DSF kinase panel (SGC-style construct names; the trailing letter is the construct ID); conditions: 10 μM compound
EPHA2 (EPHA2A) = target: T1, EPHA2 (EPHA2A) (Homo sapiens, UniProt P29317); experiment: DSF Tm panel; type: binding; conditions: 10 μM compound
T1 construct: purchased in-house DSF kinase panel (SGC-style construct names; the trailing letter is the construct ID)
T1 sequence (P29317 596-900): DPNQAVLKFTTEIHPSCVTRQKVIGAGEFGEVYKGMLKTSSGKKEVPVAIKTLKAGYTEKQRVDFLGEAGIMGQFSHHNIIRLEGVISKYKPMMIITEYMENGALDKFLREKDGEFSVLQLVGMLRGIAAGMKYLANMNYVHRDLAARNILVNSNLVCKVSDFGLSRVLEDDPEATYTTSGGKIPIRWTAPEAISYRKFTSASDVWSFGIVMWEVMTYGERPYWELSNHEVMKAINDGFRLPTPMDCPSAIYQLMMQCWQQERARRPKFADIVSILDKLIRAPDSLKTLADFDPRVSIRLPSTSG

CAMK2DA = target: T2, CAMK2DA (Homo sapiens, UniProt Q13557); experiment: DSF Tm panel; type: binding; conditions: 10 μM compound
T2 construct: purchased in-house DSF kinase panel (SGC-style construct names; the trailing letter is the construct ID)
T2 sequence (Q13557 11-309): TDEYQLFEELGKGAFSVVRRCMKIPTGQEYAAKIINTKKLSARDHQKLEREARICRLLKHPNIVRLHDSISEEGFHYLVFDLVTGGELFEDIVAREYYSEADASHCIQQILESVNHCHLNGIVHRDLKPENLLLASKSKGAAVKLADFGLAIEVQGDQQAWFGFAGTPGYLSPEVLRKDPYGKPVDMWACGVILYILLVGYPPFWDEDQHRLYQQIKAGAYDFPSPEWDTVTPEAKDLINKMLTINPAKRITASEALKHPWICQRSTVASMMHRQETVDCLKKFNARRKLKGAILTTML

STK17BA = target: T3, STK17BA (Homo sapiens, UniProt O94768); experiment: DSF Tm panel; type: binding; conditions: 10 μM compound
T3 construct: purchased in-house DSF kinase panel (SGC-style construct names; the trailing letter is the construct ID)
T3 sequence (O94768 25-329): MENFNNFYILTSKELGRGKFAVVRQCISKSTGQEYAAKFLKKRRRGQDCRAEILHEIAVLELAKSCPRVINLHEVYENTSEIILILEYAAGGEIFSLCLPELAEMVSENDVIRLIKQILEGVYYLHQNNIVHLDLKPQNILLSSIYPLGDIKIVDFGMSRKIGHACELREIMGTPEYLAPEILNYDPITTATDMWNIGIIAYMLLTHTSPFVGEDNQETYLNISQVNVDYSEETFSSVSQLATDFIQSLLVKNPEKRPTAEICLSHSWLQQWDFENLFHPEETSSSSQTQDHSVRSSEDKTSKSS

GSG2A = target: T4, GSG2A (Homo sapiens, UniProt Q8TF76); experiment: DSF Tm panel; type: binding; conditions: 10 μM compound
T4 construct: purchased in-house DSF kinase panel (SGC-style construct names; the trailing letter is the construct ID)
T4 sequence (Q8TF76 465-798): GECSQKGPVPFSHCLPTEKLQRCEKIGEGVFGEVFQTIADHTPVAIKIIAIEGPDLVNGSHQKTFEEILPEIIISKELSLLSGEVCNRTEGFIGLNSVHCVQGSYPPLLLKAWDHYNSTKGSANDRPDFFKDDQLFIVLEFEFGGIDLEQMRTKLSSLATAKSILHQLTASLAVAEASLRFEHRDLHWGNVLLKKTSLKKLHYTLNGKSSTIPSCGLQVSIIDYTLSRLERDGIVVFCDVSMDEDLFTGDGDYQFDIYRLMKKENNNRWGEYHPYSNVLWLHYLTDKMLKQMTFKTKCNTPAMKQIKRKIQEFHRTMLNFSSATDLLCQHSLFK

CDC42BPAA = experiment: DSF Tm panel; type: binding; conditions: 10 μM compound
STK10 [1] = target: T5, STK10 (Homo sapiens, UniProt O94804); experiment: DSF Tm panel; type: binding; conditions: 10 μM compound
T5 construct: purchased in-house DSF kinase panel (SGC-style construct names; the trailing letter is the construct ID)
T5 sequence (O94804 18-317 limits assumed): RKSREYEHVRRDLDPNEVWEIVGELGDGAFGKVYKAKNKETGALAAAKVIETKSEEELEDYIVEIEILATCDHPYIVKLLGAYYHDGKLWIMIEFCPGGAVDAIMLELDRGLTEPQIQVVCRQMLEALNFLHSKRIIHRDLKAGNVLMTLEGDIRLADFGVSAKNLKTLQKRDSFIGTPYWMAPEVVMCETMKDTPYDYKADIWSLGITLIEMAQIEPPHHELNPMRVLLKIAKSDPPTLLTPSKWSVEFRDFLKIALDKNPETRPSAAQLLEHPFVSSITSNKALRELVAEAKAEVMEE

NEK1A = target: T6, NEK1A (Homo sapiens, UniProt Q96PY6); experiment: DSF Tm panel; type: binding; conditions: 10 μM compound
T6 construct: purchased in-house DSF kinase panel (SGC-style construct names; the trailing letter is the construct ID)
T6 sequence (Q96PY6 1-328): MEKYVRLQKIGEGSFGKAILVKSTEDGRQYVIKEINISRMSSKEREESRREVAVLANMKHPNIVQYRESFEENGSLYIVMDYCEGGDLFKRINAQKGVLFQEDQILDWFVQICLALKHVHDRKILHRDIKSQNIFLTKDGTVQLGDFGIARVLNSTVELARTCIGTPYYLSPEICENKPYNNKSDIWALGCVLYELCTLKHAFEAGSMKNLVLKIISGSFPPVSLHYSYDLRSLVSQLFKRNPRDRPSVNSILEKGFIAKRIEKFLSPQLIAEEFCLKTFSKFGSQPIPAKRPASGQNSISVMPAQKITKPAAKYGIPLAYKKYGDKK

EPHA7A = target: T7, EPHA7A (Homo sapiens, UniProt Q15375); experiment: DSF Tm panel; type: binding; conditions: 10 μM compound
T7 construct: purchased in-house DSF kinase panel (SGC-style construct names; the trailing letter is the construct ID)
T7 sequence (Q15375 590-899): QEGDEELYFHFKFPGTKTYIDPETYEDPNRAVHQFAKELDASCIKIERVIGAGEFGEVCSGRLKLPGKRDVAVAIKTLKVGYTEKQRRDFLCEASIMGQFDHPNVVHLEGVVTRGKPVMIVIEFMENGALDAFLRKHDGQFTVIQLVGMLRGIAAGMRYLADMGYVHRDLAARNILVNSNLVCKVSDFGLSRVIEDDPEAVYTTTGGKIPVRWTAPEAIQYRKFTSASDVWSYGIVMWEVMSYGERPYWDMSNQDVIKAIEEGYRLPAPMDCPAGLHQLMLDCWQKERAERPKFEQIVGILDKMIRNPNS

MAPK13A = target: T8, MAPK13A (Homo sapiens, UniProt O15264); experiment: DSF Tm panel; type: binding; conditions: 10 μM compound
T8 construct: purchased in-house DSF kinase panel (SGC-style construct names; the trailing letter is the construct ID)
T8 sequence (O15264 1-365): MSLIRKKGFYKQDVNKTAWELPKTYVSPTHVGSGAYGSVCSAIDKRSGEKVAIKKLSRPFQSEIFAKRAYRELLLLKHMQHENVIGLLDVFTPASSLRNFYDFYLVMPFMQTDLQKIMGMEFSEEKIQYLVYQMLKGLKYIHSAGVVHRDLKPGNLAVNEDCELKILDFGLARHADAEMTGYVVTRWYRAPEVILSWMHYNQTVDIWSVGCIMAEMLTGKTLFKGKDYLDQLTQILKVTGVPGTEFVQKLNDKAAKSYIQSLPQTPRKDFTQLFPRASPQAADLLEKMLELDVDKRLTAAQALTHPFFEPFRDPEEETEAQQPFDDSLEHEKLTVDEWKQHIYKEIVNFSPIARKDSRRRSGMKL

FESA = target: T9, FESA (Homo sapiens, UniProt P07332); experiment: DSF Tm panel; type: binding; conditions: 10 μM compound
T9 construct: purchased in-house DSF kinase panel (SGC-style construct names; the trailing letter is the construct ID)
T9 sequence (P07332 whole entry): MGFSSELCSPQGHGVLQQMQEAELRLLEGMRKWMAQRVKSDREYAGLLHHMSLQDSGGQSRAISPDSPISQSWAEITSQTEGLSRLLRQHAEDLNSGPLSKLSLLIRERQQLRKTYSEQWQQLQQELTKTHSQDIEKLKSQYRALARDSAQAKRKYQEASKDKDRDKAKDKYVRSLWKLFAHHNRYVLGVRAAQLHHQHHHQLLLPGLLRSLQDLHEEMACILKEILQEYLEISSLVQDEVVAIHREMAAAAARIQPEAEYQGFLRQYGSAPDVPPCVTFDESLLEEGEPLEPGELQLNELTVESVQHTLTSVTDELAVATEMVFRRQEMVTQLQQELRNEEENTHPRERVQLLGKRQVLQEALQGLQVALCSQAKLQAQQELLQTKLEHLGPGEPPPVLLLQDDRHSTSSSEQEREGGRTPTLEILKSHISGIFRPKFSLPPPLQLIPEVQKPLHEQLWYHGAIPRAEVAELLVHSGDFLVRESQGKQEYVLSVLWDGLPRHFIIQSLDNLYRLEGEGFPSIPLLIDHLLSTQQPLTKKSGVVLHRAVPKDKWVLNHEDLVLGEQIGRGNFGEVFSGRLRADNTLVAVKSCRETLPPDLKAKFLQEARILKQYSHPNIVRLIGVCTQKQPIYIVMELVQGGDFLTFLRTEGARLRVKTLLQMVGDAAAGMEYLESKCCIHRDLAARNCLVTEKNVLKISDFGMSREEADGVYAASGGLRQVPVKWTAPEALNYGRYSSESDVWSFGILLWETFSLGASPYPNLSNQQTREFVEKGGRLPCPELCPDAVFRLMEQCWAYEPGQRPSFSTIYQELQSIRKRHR

MAPK1A = target: T10, MAPK1A (Homo sapiens, UniProt P28482); experiment: DSF Tm panel; type: binding; conditions: 10 μM compound
T10 construct: purchased in-house DSF kinase panel (SGC-style construct names; the trailing letter is the construct ID)
T10 sequence (P28482 whole entry): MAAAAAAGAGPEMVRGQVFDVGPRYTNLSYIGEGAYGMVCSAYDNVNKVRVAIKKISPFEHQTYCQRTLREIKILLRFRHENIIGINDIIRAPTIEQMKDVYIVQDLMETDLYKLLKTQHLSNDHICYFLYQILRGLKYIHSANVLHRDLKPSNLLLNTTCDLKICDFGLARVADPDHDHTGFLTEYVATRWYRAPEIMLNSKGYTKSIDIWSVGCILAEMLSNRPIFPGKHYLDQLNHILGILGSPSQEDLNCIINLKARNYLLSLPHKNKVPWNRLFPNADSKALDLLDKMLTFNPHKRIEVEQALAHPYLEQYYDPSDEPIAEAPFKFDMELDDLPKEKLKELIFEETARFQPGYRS

CAMKK2B = target: T11, CAMKK2B (Homo sapiens, UniProt Q96RR4); experiment: DSF Tm panel; type: binding; conditions: 10 μM compound
T11 construct: purchased in-house DSF kinase panel (SGC-style construct names; the trailing letter is the construct ID)
T11 sequence (Q96RR4 161-449): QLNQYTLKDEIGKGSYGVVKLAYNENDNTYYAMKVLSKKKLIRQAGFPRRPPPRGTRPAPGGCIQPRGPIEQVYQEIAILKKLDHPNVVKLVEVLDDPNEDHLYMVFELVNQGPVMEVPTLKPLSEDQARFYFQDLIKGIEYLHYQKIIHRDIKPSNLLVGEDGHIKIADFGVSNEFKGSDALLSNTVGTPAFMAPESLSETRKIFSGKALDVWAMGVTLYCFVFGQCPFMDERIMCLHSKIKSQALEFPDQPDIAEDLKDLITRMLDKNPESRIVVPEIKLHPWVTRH

AKT3A = target: T12, AKT3A (Homo sapiens, UniProt Q9Y243); experiment: DSF Tm panel; type: binding; conditions: 10 μM compound
T12 construct: purchased in-house DSF kinase panel (SGC-style construct names; the trailing letter is the construct ID)
T12 sequence (Q9Y243 148-479): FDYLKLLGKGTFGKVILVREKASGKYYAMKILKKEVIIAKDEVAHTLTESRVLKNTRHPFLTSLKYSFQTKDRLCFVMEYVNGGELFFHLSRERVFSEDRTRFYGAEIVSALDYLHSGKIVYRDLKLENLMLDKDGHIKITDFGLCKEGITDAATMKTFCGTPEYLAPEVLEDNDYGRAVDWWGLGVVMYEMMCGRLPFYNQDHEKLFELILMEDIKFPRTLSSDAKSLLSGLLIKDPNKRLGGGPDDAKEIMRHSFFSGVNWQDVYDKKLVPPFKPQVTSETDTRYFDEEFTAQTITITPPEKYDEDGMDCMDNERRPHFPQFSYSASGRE

AAK1 (AAK1A) = target: T13, AAK1 (AAK1A) (Homo sapiens, UniProt Q2M2I8); experiment: DSF Tm panel; type: binding; conditions: 10 μM compound
T13 construct: purchased in-house DSF kinase panel (SGC-style construct names; the trailing letter is the construct ID)
T13 sequence (Q2M2I8 27-365): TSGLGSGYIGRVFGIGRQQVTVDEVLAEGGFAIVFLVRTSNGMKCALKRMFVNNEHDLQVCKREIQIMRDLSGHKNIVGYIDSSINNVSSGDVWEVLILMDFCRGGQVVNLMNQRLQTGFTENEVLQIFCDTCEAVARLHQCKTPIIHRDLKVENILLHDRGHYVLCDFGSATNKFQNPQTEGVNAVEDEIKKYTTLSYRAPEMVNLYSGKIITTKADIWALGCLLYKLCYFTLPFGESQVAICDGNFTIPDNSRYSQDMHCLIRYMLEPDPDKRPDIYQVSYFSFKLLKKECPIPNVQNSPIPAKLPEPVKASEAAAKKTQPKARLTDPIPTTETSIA

STK10 [2] = target: T5, STK10; experiment: PhosphoSens in vitro activity assay; type: biochemical; conditions: ATP 160 μM

| Compound | ΔTm at 10 µM (SLK) [°C] | ΔTm at 10 µM (EPHA2 (EPHA2A)) [°C] | ΔTm at 10 µM (CAMK2DA) [°C] | ΔTm at 10 µM (STK17BA) [°C] | ΔTm at 10 µM (GSG2A) [°C] | ΔTm CDC42BPAA (CDC42BPAA) | ΔTm at 10 µM (STK10 [1]) [°C] | ΔTm at 10 µM (NEK1A) [°C] | ΔTm at 10 µM (EPHA7A) [°C] | ΔTm at 10 µM (MAPK13A) [°C] | ΔTm at 10 µM (FESA) [°C] | ΔTm at 10 µM (MAPK1A) [°C] | ΔTm at 10 µM (CAMKK2B) [°C] | ΔTm at 10 µM (AKT3A) [°C] | ΔTm at 10 µM (AAK1 (AAK1A)) [°C] | IC50 (STK10 [2]) [nM] |
| --- | --- | --- | --- | --- | --- | --- | --- | --- | --- | --- | --- | --- | --- | --- | --- | --- |
| O=C(NCc1ccccc1)Nc1ccc2cc1OCCOCCNc1ccn3ncc-2c3n1 [compound 16] | 4.4 | 0.8 | 0.2 | 1.3 | 0.5 | -0,2 °C | 6.9 | 0.1 | -0.1 | 0.1 | 3 | -0.1 | 3.8 | 0 | 8.3 | 880 ± 110 |
| O=C(NCc1ccccc1Cl)Nc1ccc2cc1OCCOCCNc1ccn3ncc-2c3n1 [compound 17] | 4.8 | 0.5 | 0.4 | 4.1 | -0.3 | 0,1 °C | 8.5 | 0.2 | 0.4 | 0.5 | 0.2 | 0.3 | 3.3 | -0.3 | 7 | 1530 ± 260 |
| O=C(NCc1cccc(Cl)c1)Nc1ccc2cc1OCCOCCNc1ccn3ncc-2c3n1 [compound 18] | 4.7 | 0.6 | 0.5 | 2.4 | 0 | 0,0 °C | 9.4 | 0.2 | 0.8 | 0.7 | 0.1 | 0.7 | 3.1 | -0.4 | 5.5 | 2570 ± 110 |
| O=C(NCc1ccc(Cl)cc1)Nc1ccc2cc1OCCOCCNc1ccn3ncc-2c3n1 [compound 19] | 5.2 | 0.2 | -0.1 | 1.2 | -0.2 | 0,0 °C | 10 | -0.2 | 0.4 | 0.6 | 0.4 | 0.1 | 3.4 | -0.4 | 7.1 | 950 ± 120 |
| O=C(NCc1ccc(Cl)cc1Cl)Nc1ccc2cc1OCCOCCNc1ccn3ncc-2c3n1 [compound 20] | 5.8 | 0.4 | 0.9 | 2.8 | 0 | 0,7 °C | 9.6 | 0.7 | 1 | 0.4 | 0.5 | 0.8 | 1.2 | 0.4 | 6.3 | 1430 ± 280 |
